Laboratory results from patent publication US10933063B2 (priority 2017, dated 2021).
Like-named read-outs stand apart in the source and are kept apart here.

What was measured:
[1] = target: T1, BTK (Homo sapiens (Human), UniProt Q06187); conditions: read-out: BTK Inhibition
[2] = target: T1, BTK; assay: biochemical

T1 sequence (Q06187 whole entry, looked up, species assumed): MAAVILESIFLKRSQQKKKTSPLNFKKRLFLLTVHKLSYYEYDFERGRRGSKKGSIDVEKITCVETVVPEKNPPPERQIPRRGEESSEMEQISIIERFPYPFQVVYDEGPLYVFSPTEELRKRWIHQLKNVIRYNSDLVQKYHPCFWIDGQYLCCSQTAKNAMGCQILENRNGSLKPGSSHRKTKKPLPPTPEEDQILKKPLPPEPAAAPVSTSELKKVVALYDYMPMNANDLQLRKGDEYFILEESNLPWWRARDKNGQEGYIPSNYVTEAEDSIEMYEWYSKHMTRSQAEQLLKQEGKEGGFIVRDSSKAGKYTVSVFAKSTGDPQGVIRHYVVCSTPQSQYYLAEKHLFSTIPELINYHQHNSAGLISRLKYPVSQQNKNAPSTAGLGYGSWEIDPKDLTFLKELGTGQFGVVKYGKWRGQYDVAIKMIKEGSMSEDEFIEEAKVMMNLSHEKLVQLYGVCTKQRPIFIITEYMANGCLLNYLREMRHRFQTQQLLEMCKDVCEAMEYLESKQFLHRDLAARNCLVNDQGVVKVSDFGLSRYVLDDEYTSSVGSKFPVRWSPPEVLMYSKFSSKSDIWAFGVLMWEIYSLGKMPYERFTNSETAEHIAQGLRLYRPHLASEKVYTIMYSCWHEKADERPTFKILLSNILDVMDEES

Structure (SMILES) | IC50 [1] [nM] | IC50 [2] [nM]
C=CC(=O)N1CCCC[C@H]1c1nc(-c2ccc(C(=O)Nc3ccccn3)cc2)c2c(C(F)(F)F)nccn12 [Example 199, (S)-4-(3-(1-acryloylpiperidin-2-yl)-8-(trifluoromethyl)imidazo[1,5-a]pyrazin-1-yl)-N-(pyridin-2-yl)benzamide] | > 10000 | –
C=CC(=O)N1CCCC[C@H]1c1nc(-c2ccc(Oc3cccc(C)c3)cc2)c2c(C)nccn12 [Example 40, (S)-1-(2-(8-methyl-1-(4-(m-tolyloxy)phenyl)imidazo[1,5-a]pyrazin-3-yl)piperidin-1-yl)prop-2-en-1-one] | < 10 | –
C=CC(=O)N1CC[C@@H](c2nc(-c3ccc(Oc4cccc(OC)c4F)cc3)c3cncc(OC)n23)C1 [Example 85, (R)-1-(3-(1-(4-(2-fluoro-3-methoxyphenoxy)phenyl)-5-methoxyimidazo[1,5-a]pyrazin-3-yl)pyrrolidin-1-yl)prop-2-en-1-one] | < 10 | –
C=CC(=O)N1CCC[C@H]1c1nc(-c2ccc(Oc3cccc(OC)c3F)cc2)c2c(C)nccn12 [Example 61, (S)-1-(2-(1-(4-(2-fluoro-3-methoxyphenoxy)phenyl)-8-methylimidazo[1,5-a]pyrazin-3-yl)pyrrolidin-1-yl)prop-2-en-1-one] | < 10 | –
C=CC(=O)N1CCCC[C@H]1c1nc(-c2ccc(Oc3cccc(C)c3)cc2)c2cnccn12 [Example 50, (S)-1-(2-(1-(4-(m-tolyloxy)phenyl)imidazo[1,5-a]pyrazin-3-yl)piperidin-1-yl)prop-2-en-1-one] | – | 10 to 100
C=CC(=O)N1CCC[C@H]1c1nc(-c2ccc(COc3cccc(F)c3)cc2)c2cnccn12 [Example 145, (S)-1-(2-(1-(4-((3-fluorophenoxy)methyl)phenyl)imidazo[1,5-a]pyrazin-3-yl)pyrrolidin-1-yl)prop-2-en-1-one] | – | 10 to 100
C=CC(=O)N1CCC[C@H]1c1nc(-c2ccc(C(=O)Nc3ccccn3)cc2)c2cncc(C)n12 [Example 172, (S)-4-(3-(1-aeryloylpyrrolidin-2-yl)-5-methylimidazo [1,5-a]pyrazin-l-yl)-N-(pyridin-2-yl)benzamide] | – | 10 to 100
CC#CC(=O)N1CCCC[C@H]1c1nc(-c2ccc(Oc3cccc(F)c3)cc2)c2c(C)nccn12 [Example 56, (S)-1-(2-(1-(4-(3-fluorophenoxy)phenyl)-8-methylimidazo[1,5-a]pyrazin-3-yl)piperidin-1-yl)but-2-yn-1-one] | – | 10 to 100
CC#CC(=O)N1CC[C@@H](c2nc(-c3ccc(Oc4cccc(OC)c4F)cc3)c3c(COC(C)=O)nccn23)C1 [Example 118, (R)-(3-(1-(but-2-ynoyl)pyrrolidin-3-yl)-1-(4-(2-fluoro-3-methoxyphenoxy)phenyl)imidazo[1,5-a]pyrazin-8-yl)methyl acetate] | – | 100 to 1000
C=CC(=O)N1CCC[C@H]1c1nc(-c2ccc(OCc3cccc(F)c3F)cc2)c2cnccn12 [Example 124, (S)-1-(2-(1-(4-((2,3-Difluorobenzyl)oxy)phenyl)imidazo[1,5-a]pyrazin-3-yl)pyrrolidin-1-yl)prop-2-en-1-one] | – | 10 to 100
CC#CC(=O)N1CCC[C@H]1c1nc(-c2ccc(OCc3ccc(F)c(F)c3)cc2)c2cnccn12 [Example 134, (S)-1-(2-(1-(4-((3,4-difluorobenzyl)oxy)phenyl)imidazo[1,5-a]pyrazin-3-yl)pyrrolidin-1-yl)but-2-yn-1-one] | – | 1000 to 10000
CC#CC(=O)N1CCCC[C@H]1c1nc(-c2ccc(Oc3cccc(OC)c3F)cc2)c2cncc(C)n12 [Example 79, (S)-1-(2-(1-(4-(2-fluoro-3-methoxyphenoxy)phenyl)-5-methylimidazo[1,5-a]pyrazin-3-yl)piperidin-1-yl)but-2-yn-1-one] | – | 100 to 1000
C=CC(=O)N1CCC[C@H]1c1nc(-c2ccc(COc3ccc(F)cc3)cc2)c2cnccn12 [Example 126, (S)-1-(2-(1-(4-((4-fluorophenoxy)methyl)phenyl)imidazo[1,5-a]pyrazin-3-yl)pyrrolidin-1-yl)prop-2-en-1-one] | – | 10 to 100
CC#CC(=O)N1CCCC[C@H]1c1nc(-c2ccc(Oc3cccc(OC)c3F)cc2)c2cnccn12 [Example 25, (S)-1-(2-(1-(4-(2-fluoro-3-methoxyphenoxy)phenyl)imidazo[1,5-a]pyrazin-3-yl)piperidin-1-yl)but-2-yn-1-one] | – | 10 to 100
CC#CC(=O)N1CCC[C@H]1c1nc(-c2ccc(OCc3cccc(Cl)c3)cc2)c2cnccn12 [Example 142, (S)-1-(2-(1-(4-((3-chlorobenzyl)oxy)phenyl)imidazo[1,5-a]pyrazin-3-yl)pyrrolidin-1-yl)but-2-yn-1-one] | – | 1000 to 10000
C=CC(=O)N1CCCC[C@H]1c1nc(-c2cccc(OCc3cccc(C(F)(F)F)c3)c2)c2c(C)nccn12 [Example 162, (S)-1-(2-(8-methyl-1-(3-((3-(trifluoromethyl)benzyl)oxy)phenyl)imidazo[1,5-a]pyrazin-3-yl)piperidin-1-yl)prop-2-en-1-one] | – | 1000 to 10000
C=CC(=O)N1CC[C@@H](c2nc(-c3ccc(C(=O)Nc4ccccn4)cc3)c3c(C)ncc(C)n23)C1 [Example 182, (R)-4-(3-(1-acryloylpyrrolidin-3-yl)-5,8-dimethylimidazo [1,5-a]pyrazin-1-yl)-N-(pyridin-2-yl)benzamide] | – | 10 to 100
COc1cccc(Oc2ccc(-c3nc([C@@H]4CCC5CCC(=O)N5C4)n4ccncc34)cc2)c1F (stereo partly drawn) [Example 213, (6R)-6-(1-(4-(2-fluoro-3-methoxyphenoxy)phenyl)imidazo[1,5-a]pyrazin-3-yl)hexahydroindolizin-3(2H)-one] | – | 100 to 1000
CC#CC(=O)N1CC[C@@H](c2nc(-c3ccc(Oc4cccc(OC)c4F)cc3)c3c(CCC)nccn23)C1 [Example 110, (R)-1-(3-(1-(4-(2-fluoro-3-methoxyphenoxy)phenyl)-8-propylimidazo[1,5-a]pyrazin-3-yl)pyrrolidin-1-yl)but-2-yn-1-one] | – | 1000 to 10000
C=CC(=O)N1CC[C@@H](c2nc(-c3ccc(Oc4cccc(OC)c4F)cc3)c3c(O)nccn23)C1 [Example 113, (R)-1-(3-(1-(4-(2-fluoro-3-methoxyphenoxy)phenyl)-8-hydroxyimidazo[1,5-a]pyrazin-3-yl)pyrrolidin-1-yl)prop-2-en-1-one] | – | 100 to 1000
CC#CC(=O)N1CCC[C@H]1c1nc(-c2ccc(Oc3cccc(OC)c3F)cc2)c2cnccn12 [Example 34, (S)-1-(2-(1-(4-(2-fluoro-3-methoxyphenoxy)phenyl)imidazo[1,5-a]pyrazin-3-yl)pyrrolidin-1-yl)but-2-yn-1-one] | – | 10 to 100
CC#CC(=O)N1CC[C@@H](c2nc(-c3ccc(C(=O)Nc4ccccn4)cc3)c3cncc(C)n23)C1 [Example 181, (R)-4-(3-(1-(but-2-ynoyl)pyrrolidin-3-yl)-5-methylimidazo[1,5-a]pyrazin-1-yl)-N-(pyridin-2-yl)benzamide] | – | 1000 to 10000
CC#CC(=O)N1CCC[C@H]1c1nc(-c2ccc(Oc3cccc(F)c3)cc2)c2cnccn12 [Example 7, (S)-1-(2-(1-(4-(3-fluorophenoxy)phenyl)imidazo[1,5-a]pyrazin-3-yl)pyrrolidin-1-yl)but-2-yn-1-one] | – | 10 to 100
C=CC(=O)N1CCCC[C@H]1c1nc(-c2ccc(Oc3cccc(OC)c3)cc2)c2cnccn12 [Example 58, (S)-1-(2-(1-(4-(3-methoxyphenoxy)phenyl)imidazo[1,5-a]pyrazin-3-yl)piperidin-1-yl)prop-2-en-1-one] | – | 10 to 100
